The series is described as follows: Henry solubility constant Hcp at 298.15 K (mol/(m3 Pa)). To be noted: reference: Ashworth et al. (1988).

The structures appear in SMILES notation.

We go through 34 compounds from Sander's compilation of Henry's law constants (doi:10.1016/0304-3894(88)85057-x).

With `CC(Cl)(Cl)Cl` [1,1,1-trichloroethane], the “Henry solubility constant Hcp” value came out at 0.00057.

As to `ClC(Cl)C(Cl)Cl` [1,1,2,2-tetrachloroethane], the “Henry solubility constant Hcp” value came to 0.022.

For the compound `ClCC(Cl)Cl` [1,1,2-trichloroethane], the “Henry solubility constant Hcp” value is 0.01.

For `C=C(Cl)Cl` [1,1-dichloroethene], the “Henry solubility constant Hcp” value was determined as 0.00037.

Consider `c1ccc2c(c1)CCCC2` [1,2,3,4-tetrahydronaphthalene], for which the “Henry solubility constant Hcp” value came out at 0.0051.

`CC(Cl)CCl` (centres undefined) [1,2-dichloropropane]: the “Henry solubility constant Hcp” value is 0.0038.

In the case of `Cc1ccccc1C` [1,2-dimethylbenzene], the “Henry solubility constant Hcp” value was 0.0019.

Regarding `Cc1cc(C)cc(C)c1` [1,3,5-trimethylbenzene], the “Henry solubility constant Hcp” value stood at 0.0014.

Regarding `Clc1cccc(Cl)c1` [1,3-dichlorobenzene], the “Henry solubility constant Hcp” value turned out to be 0.003.

Turning to `Cc1cccc(C)c1` [1,3-dimethylbenzene], the “Henry solubility constant Hcp” value came out at 0.0013.

Consider `Clc1ccc(Cl)cc1` [1,4-dichlorobenzene], for which the “Henry solubility constant Hcp” value came to 0.0031.

Regarding `Cc1ccc(C)cc1` [1,4-dimethylbenzene], the “Henry solubility constant Hcp” value came to 0.0013.

As to `Cc1ccc(O)c(C)c1` [1-hydroxy-2,4-dimethylbenzene], the “Henry solubility constant Hcp” value came out at 0.0019.

Consider `COCCO` [2-methoxyethanol], for which the “Henry solubility constant Hcp” value stood at 0.00022.

As for `CCCC(C)C` [2-methylpentane], the “Henry solubility constant Hcp” value was determined as 1.3e-05.

Turning to `CC(=O)CC(C)C` [4-methyl-2-pentanone], the “Henry solubility constant Hcp” value came out at 0.022.

`CC(C)c1ccccc1` [(2-propyl)-benzene]: the “Henry solubility constant Hcp” value was found to be 0.0016.

Consider `c1ccccc1` [benzene], for which the “Henry solubility constant Hcp” value stood at 0.0018.

In the case of `Clc1ccccc1` [chlorobenzene], the “Henry solubility constant Hcp” value was 0.0025.

On to `CCCl` [chloroethane], for which the “Henry solubility constant Hcp” value amounted to 0.00079.

With `C=CCl` [chloroethene], the “Henry solubility constant Hcp” value was 0.0004.

As for `C1CCCCC1` [cyclohexane], the “Henry solubility constant Hcp” value is 5.5e-05.

Consider `C1CCC2CCCCC2C1` (centres undefined) [decahydronaphthalene], for which the “Henry solubility constant Hcp” value was found to be 7.2e-05.

In the case of `ClC(Br)Br` [dibromochloromethane], the “Henry solubility constant Hcp” value came out at 0.0085.

On to `ClCCl` [dichloromethane], for which the “Henry solubility constant Hcp” value came to 0.0034.

As to `CCc1ccccc1` [ethylbenzene], the “Henry solubility constant Hcp” value is 0.0012.

Regarding `ClC(Cl)(Cl)C(Cl)(Cl)Cl` [hexachloroethane], the “Henry solubility constant Hcp” value was 0.0012.

Regarding `CCCCCC` [hexane], the “Henry solubility constant Hcp” value is 9.9e-06.

Regarding `Cc1ccccc1` [methylbenzene], the “Henry solubility constant Hcp” value was 0.0015.

With `CCCCCCCCC` [nonane], the “Henry solubility constant Hcp” value came out at 2.3e-05.

In the case of `CCCc1ccccc1` [propylbenzene], the “Henry solubility constant Hcp” value was found to be 0.0009.

In the case of `ClC(Cl)=C(Cl)Cl` [tetrachloroethene], the “Henry solubility constant Hcp” value turned out to be 0.00054.

Regarding `ClC(Cl)(Cl)Cl` [tetrachloromethane], the “Henry solubility constant Hcp” value was 0.00033.

Regarding `ClC=C(Cl)Cl` [trichloroethene], the “Henry solubility constant Hcp” value was found to be 0.00095.
